Experimental data: patent publication US11180485B2, “Diaryl-azole compound and formulation for controlling harmful organism” (Nippon Soda Co., Ltd., priority 2016, dated 2021)

What was measured:
[1] = system: Culex pipiens molestus; assay: Test Example 10: efficacy test against Culex pipiens molestus; format: in vivo; settings: 24 h, 20 first-instar larvae in 100 mL, after one day, read-out: mortality rate against first-instar larvae of Culex pipiens molestus (converted)
Protocol: (§1) 5 parts of the compound of the present invention, 93.6 parts of dimethylformamide and 1.4 parts of polyoxyethylene alkyl aryl ether were mixed and dissolved to prepare Emulsion (1) including 5% of an active ingredient.
(§2) An insect mortality rate and a controlling rate were calculated by the numerical equations shown below. Insect mortality rate (%)=(Number of dead insects)/(Number of sample insects)×100 Controlling rate={1−(Nt)/(Nc)}×100
Emulsion (1) was diluted with water so that the concentration of the compound of the present invention was 10 ppm, to prepare a chemical liquid for testing. 20 first-instar larvae of Culex pipiens molestus were released in 100 mL of the chemical liquid. After one day, the number of dead insects was counted, and the insect mortality rate was calculated. The test was performed twice.

[2] = system: Aphis craccivora; assay: Test Example 4: efficacy test against Aphis craccivora (spray on black-eyed pea plants); format: in vivo; settings: in Vigna unguiculata, 96 h, sprayed on black-eyed pea plants with nymphs, 4 days after spraying, read-out: mortality rate against Aphis craccivora
Protocol: as §1, §2
Black-eyed pea plants were raised in No. 3 pots and the primary leaves were inoculated with nymphs of Aphis craccivora. Emulsion (1) was diluted with water so that the concentration of the compound of the present invention was 125 ppm. Subsequently, the aforementioned diluted liquid was sprayed on the black-eyed pea plants on which the nymphs of Aphis craccivora were parasitic. The aforementioned black-eyed pea plants were then placed in a thermostatic chamber with a temperature of 25° C. and humidity of 60%. Mortality was investigated 4 days after spraying was carried out, and the insect mortality rate of Aphis craccivora was calculated. The test was performed twice.

[3] = system: Phyllotreta striolata; assay: Test Examples 7 and 14: efficacy test against Phyllotreta striolata (spray on bok-choi seedlings); format: in vivo; settings: 168 h, sprayed on bok-choi seedlings, adults, 7 days after inoculation, read-out: mortality rate against adult Phyllotreta striolata
Protocol: as §1, §2
(§3) Emulsion (1) was diluted with water so that the concentration of the compound of the present invention was 125 ppm, to prepare a diluted liquid for testing. The aforementioned diluted liquid was sprayed on bok-choi seedlings (7th major leaf-development period) planted in No. 3 pots. After the bok-choi seedlings were subjected to air-drying, the seedlings were placed in plastic cups, followed by inoculating 10 adult Phyllotreta striolata. The plastic cups were stored in a thermostatic chamber at a temperature of 25° C. and humidity of 65%. Mortality was investigated 7 days after inoculation, and the insect mortality rate was calculated. The test was performed twice.
as §3, with “8” for “125”

[4] = system: Plutella xylostella; assay: Test Example 3: efficacy test against Plutella xylostella (cabbage leaf soak); format: in vivo; settings: 72 h, cabbage leaves soaked 30 seconds, second-instar larvae, 3 days after inoculation, read-out: mortality rate against Plutella xylostella
Protocol: as §1, §2
Emulsion (1) was diluted with water so that the concentration of the compound of the present invention was 125 ppm. Cabbage leaves were soaked in the diluted liquid for 30 seconds. Subsequently, the cabbage leaves were put on Petri dishes, followed by inoculating 5 second-instar larvae of Plutella xylostella. The Petri dishes were placed in a thermostatic chamber at a temperature of 25° C. and humidity of 60%. Mortality was investigated 3 days after inoculation, and the insect mortality rate was calculated. The test was performed twice.

[5] = system: Nilaparvata lugens; assay: Test Examples 6 and 13: efficacy test against Nilaparvata lugens (rice seedling soak); format: in vivo; settings: 168 h, rice seedlings soaked 30 seconds, second-instar larvae, 7 days after inoculation, read-out: mortality rate against Nilaparvata lugens
Protocol: as §1, §2
(§4) Emulsion (1) was diluted with water so that the concentration of the compound of the present invention was 125 ppm. Rice seedlings were soaked in the diluted liquid for 30 seconds, and subjected to air-drying. Subsequently, the rice seedlings were placed in plastic cases, followed by inoculating 5 second-instar larvae of Nilaparvata lugens. The plastic cases were placed in a thermostatic chamber at a temperature of 25° C. and humidity of 65%. Mortality was investigated 7 days after inoculation, and the insect mortality rate was calculated. The test was performed twice.
as §4, with “8” for “125”

Row | melting point | SMILES | mortality at 10 ppm [1] | mortality at 125 ppm [2] | mortality at 125 ppm [3] | mortality at 125 ppm [4] | mortality at 125 ppm [5] | further results
1 |  | CCS(=O)(=O)c1cnc(-n2cncn2)nc1-c1ncc(-c2ccc(OC(F)(F)F)cc2)n1C [Compound No. 3, 5-(ethylsulfonyl)-4-(1-methyl-5-(4-(trifluoromethoxy)phenyl)-1H-imidazol-2-yl)-2-(1H-1,2,4-triazol-1-yl)pyrimidine] | 100% |  |  |  |  | 
2 |  | CCS(=O)(=O)c1cnc(-c2ncccn2)nc1-c1ncc(-c2ccc(OC(F)(F)F)cc2)n1C [Compound No. 7, 5-(ethylsulfonyl)-4-(1-methyl-5-(4-(trifluoromethoxy)phenyl)-1H-imidazol-2-yl)-2,2′-bipyrimidine] |  | ≥ 80% | ≥ 80% | ≥ 80% | ≥ 80% | mortality at 8 ppm ([3]; 8 ppm): ≥ 80%; mortality at 8 ppm ([5]; 8 ppm): ≥ 80%
3 |  | CCS(=O)(=O)c1ccc(-n2cnc(C)n2)nc1-c1ncc(-c2ccc(OC(F)(F)F)cc2)n1C [Compound No. a-8, 3-(ethylsulfonyl)-6-(3-methyl-1H-1,2,4-triazol-1-yl)-2-(1-methyl-5-(4-(trifluoromethoxy)phenyl)-1H-imidazol-2-yl)pyridine] | 100% | ≥ 80% | ≥ 80% | ≥ 80% | ≥ 80% | 
4 | 202 to 204 °C | CCS(=O)(=O)c1cc(C(F)(F)F)ccc1-c1nc(Br)c(-n2cc(I)cn2)n1C [b-1] |  |  |  |  |  | 
5 | 176 to 178 °C | CCS(=O)(=O)c1cc(C(F)(F)F)ccc1-c1nc(Br)c(-n2cc(C(F)(F)F)cn2)n1C [b-2] |  |  |  |  |  | 
6 |  | CCSc1cnc(-n2cncn2)nc1-c1ncc(-c2ccc(OC(F)(F)F)cc2)n1C [compound 2, 5-(ethylthio)-4-(1-methyl-5-(4-(trifluoromethoxy)phenyl)-1H-imidazol-2-yl)-2-(1H-1,2,4-triazol-1-yl)pyrimidine] | 100% |  |  |  |  | 
